How the values were obtained:
Test in all cases: biochemical
Assay type in all cases: biochemical
[1] = target: T1, 363 human kinases (including Aurora A/B/C) (Homo sapiens, UniProt O75385); details: ULK1; for remaining activity at 0.1 µM: 100 nM; for remaining activity at 0.1 µM / remaining activity at 0.5 µM: read-out: % Enzyme Activity (relative to DMSO controls)
T1 sequence (O75385 1-1050): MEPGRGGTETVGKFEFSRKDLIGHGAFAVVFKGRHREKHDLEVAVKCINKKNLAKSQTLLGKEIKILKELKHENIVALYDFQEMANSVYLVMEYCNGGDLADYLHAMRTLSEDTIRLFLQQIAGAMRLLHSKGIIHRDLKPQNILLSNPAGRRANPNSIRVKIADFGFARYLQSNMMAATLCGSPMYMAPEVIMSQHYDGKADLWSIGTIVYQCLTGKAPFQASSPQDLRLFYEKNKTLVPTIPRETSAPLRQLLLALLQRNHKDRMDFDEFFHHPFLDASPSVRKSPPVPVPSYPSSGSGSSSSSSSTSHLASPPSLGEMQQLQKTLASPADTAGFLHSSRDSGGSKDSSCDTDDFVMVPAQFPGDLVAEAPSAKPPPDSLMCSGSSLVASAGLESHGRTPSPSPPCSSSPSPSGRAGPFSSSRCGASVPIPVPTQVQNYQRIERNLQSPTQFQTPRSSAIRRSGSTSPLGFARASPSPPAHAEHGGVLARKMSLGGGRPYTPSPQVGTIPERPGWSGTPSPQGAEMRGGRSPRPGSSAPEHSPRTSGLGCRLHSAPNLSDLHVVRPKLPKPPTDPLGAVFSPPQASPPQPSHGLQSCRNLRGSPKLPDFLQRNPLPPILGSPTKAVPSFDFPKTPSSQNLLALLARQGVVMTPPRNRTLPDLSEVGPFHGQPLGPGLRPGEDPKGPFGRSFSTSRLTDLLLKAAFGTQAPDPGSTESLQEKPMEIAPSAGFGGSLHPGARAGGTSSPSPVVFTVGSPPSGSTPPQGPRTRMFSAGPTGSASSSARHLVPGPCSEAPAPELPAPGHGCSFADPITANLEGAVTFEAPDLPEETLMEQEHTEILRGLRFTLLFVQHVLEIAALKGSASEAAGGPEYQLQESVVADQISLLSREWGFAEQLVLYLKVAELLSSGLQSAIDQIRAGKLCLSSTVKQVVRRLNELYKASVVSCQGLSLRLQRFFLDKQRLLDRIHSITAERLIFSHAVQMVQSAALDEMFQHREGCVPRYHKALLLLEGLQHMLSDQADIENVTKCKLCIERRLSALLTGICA
Source text: (§1) However, the Aurora A/B selectivity ratios derived from our in vitro and in vivo data can be compared to prioritize inhibitors.

[2] = target: 363 human kinases (including Aurora A/B/C) (Homo sapiens, UniProt P15056); details: BRAF, [ATP] 10 µM; for remaining activity at 0.1 µM: 100 nM; for remaining activity at 0.1 µM / remaining activity at 0.5 µM: read-out: % Enzyme Activity (relative to DMSO controls)
363 human kinases (including Aurora A/B/C) (Homo sapiens, UniProt P15056), sequence (P15056 whole entry): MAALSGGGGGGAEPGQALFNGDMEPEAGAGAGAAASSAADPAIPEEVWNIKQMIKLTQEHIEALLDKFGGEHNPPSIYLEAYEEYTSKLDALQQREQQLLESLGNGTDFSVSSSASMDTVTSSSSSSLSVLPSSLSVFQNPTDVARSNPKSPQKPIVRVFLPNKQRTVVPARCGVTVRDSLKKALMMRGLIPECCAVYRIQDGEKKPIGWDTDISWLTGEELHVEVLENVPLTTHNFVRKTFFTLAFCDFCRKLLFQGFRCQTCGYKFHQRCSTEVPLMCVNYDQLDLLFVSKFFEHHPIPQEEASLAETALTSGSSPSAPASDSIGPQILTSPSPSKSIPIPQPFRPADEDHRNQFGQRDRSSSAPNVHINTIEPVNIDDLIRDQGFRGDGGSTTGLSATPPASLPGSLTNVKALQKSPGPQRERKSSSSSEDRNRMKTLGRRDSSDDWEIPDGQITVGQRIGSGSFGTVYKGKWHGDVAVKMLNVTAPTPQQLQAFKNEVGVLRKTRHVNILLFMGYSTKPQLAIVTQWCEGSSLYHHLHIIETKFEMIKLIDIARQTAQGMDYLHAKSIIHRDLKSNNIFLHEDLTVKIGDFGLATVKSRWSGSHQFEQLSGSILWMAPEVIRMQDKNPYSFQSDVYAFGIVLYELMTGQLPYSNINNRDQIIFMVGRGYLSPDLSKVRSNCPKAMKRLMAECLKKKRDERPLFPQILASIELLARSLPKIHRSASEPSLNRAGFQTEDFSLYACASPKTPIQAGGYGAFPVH
Source text: as §1

[3] = target: T2, 363 human kinases (including Aurora A/B/C) (Homo sapiens, UniProt Q13976); details: PKG1a; for remaining activity at 0.1 µM: 100 nM
T2 sequence (Q13976 1-671): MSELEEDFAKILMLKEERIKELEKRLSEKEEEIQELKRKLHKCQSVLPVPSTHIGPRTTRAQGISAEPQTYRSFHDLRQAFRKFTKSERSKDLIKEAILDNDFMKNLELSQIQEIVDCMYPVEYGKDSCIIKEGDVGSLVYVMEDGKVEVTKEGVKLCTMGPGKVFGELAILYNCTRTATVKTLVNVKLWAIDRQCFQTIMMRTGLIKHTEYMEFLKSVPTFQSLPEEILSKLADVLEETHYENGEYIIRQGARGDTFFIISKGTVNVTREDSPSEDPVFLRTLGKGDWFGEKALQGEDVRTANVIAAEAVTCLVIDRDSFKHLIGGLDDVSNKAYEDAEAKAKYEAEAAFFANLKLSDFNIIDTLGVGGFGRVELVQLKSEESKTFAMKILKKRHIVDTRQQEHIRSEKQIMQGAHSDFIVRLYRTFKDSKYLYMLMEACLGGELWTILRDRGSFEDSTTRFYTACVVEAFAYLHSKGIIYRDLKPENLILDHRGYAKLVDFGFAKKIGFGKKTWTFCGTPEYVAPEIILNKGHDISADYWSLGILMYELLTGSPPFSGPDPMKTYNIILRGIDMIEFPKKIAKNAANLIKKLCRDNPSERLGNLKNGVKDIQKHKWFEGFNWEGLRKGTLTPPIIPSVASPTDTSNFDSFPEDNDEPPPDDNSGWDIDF
Source text: as §1

[4] = target: 363 human kinases (including Aurora A/B/C) (Homo sapiens, UniProt Q5TCY1); details: TTBK1; for remaining activity at 0.1 µM: 100 nM; for remaining activity at 0.1 µM / remaining activity at 0.5 µM: read-out: % Enzyme Activity (relative to DMSO controls)
363 human kinases (including Aurora A/B/C) (Homo sapiens, UniProt Q5TCY1), sequence (Q5TCY1 whole entry): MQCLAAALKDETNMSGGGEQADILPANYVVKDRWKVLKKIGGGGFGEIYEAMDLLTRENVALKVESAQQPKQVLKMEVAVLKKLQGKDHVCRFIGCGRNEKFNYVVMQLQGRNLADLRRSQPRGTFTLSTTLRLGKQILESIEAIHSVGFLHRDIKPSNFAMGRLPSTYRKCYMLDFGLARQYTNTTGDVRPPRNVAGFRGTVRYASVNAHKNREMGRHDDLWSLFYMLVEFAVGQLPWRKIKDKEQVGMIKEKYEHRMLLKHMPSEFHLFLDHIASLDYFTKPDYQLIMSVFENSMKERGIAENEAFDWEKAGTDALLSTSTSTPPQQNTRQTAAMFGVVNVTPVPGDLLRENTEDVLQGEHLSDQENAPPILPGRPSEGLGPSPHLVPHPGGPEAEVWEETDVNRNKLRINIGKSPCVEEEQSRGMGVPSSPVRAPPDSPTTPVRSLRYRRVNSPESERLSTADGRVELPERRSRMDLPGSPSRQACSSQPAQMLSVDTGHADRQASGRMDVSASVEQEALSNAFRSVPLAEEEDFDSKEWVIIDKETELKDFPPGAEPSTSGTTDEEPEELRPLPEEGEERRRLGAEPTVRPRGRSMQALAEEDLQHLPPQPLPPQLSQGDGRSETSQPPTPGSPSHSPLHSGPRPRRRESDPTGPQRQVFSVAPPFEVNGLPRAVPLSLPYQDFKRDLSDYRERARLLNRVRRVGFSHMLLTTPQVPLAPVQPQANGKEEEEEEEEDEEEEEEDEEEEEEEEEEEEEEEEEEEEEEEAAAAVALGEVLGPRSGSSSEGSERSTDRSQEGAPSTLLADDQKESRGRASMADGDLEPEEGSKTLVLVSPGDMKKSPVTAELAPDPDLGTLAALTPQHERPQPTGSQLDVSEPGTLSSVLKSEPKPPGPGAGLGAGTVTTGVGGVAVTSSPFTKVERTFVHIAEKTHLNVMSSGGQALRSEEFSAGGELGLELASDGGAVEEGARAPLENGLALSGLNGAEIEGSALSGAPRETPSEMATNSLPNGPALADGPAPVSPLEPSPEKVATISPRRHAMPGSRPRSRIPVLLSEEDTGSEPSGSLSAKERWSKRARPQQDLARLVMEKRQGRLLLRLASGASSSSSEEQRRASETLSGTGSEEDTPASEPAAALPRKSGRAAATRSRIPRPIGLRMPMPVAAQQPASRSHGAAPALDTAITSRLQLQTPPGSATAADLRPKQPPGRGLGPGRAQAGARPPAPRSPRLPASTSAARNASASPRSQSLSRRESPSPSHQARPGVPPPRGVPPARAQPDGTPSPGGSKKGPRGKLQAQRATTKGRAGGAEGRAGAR
Source text: as §1

[5] = target: T3, 363 human kinases (including Aurora A/B/C) (Homo sapiens, UniProt Q9UF33); details: EPHA6, [ATP] 100 µM; for remaining activity at 0.1 µM: 100 nM; for remaining activity at 0.1 µM / remaining activity at 0.5 µM: read-out: % Enzyme Activity (relative to DMSO controls)
T3 sequence (Q9UF33 23-1036): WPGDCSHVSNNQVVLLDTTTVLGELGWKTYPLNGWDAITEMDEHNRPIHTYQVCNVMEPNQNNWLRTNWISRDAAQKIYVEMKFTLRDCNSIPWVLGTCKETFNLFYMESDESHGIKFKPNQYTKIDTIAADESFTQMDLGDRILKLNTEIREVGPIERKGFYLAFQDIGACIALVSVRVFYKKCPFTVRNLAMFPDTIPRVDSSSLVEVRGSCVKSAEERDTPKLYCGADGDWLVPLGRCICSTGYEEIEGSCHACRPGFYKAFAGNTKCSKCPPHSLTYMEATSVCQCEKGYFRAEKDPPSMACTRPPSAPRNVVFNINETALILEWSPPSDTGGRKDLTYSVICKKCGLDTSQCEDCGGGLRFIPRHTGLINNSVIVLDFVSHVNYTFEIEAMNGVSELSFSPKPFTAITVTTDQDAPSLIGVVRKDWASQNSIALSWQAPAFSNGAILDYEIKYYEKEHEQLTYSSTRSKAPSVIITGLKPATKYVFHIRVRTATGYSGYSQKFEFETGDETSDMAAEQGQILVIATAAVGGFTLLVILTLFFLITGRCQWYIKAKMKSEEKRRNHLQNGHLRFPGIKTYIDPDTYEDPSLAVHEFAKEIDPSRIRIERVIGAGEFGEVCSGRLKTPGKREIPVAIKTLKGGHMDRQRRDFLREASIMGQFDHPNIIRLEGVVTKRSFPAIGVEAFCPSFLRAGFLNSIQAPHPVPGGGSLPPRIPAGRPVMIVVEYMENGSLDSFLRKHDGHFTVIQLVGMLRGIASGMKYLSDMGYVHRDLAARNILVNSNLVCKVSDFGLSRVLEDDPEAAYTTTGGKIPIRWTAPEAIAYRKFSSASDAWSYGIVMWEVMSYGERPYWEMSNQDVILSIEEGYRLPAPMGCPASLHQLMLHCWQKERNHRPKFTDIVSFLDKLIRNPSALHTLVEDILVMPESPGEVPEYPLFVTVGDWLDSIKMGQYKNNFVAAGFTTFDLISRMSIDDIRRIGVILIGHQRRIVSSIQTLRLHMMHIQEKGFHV
Source text: as §1

[6] = read-out: % Enzyme Activity (relative to DMSO controls)

Row | Structure (SMILES) | remaining activity at 0.1 µM [1] | remaining activity at 0.1 µM [2] | remaining activity at 0.1 µM [3, 6] | remaining activity at 0.1 µM [4] | remaining activity at 0.1 µM [5] | remaining activity at 0.5 µM ([1]; 500 nM) | remaining activity at 0.5 µM ([2]; 500 nM) | remaining activity at 0.5 µM ([4]; 500 nM) | remaining activity at 0.5 µM ([5]; 500 nM) | % Enzyme Activity (relative to DMSO controls) ([1]; 500 nM) | % Enzyme Activity (relative to DMSO controls) ([2]; 500 nM) | % Enzyme Activity (relative to DMSO controls) ([3]; 500 nM) | remaining activity at 0.5 µM ([3]; 500 nM, read-out: % Enzyme Activity (relative to DMSO controls)) | % Enzyme Activity (relative to DMSO controls) ([4]; 500 nM) | % Enzyme Activity (relative to DMSO controls) ([5]; 500 nM)
1 | CCn1cc(-c2ccnc3[nH]c(-c4cccc(CN(C)C)c4)cc23)c(-c2ccc(NC(=O)N(C)C)cc2)n1 [GSK1070916] | 111% | 97.1% | 126% | 115% | 89.4% |  |  |  |  |  |  |  |  |  | 
2 | O=C(O)[C@]1(Cc2cccc(Nc3nccs3)n2)CC[C@@H](Oc2cccc(Cl)c2F)CC1 [MK-5108] | 107% | 103% | 122% | 101% | 5.77% | 104% | 94.7% | 116% | 1.6% |  |  |  |  |  | 
3 | O=C(c1cccc(Cl)c1F)N1CCN(Cc2cccc(Nc3nccs3)n2)CC1 [MK-8745] |  |  |  |  |  | 93.8% | 96.1% | 111% | 34.6% | 92.67% | 94.88% | 94.34% | 95.4% | 108.75% | 34.30%

From article PMC4685510, “A Cell Biologist’s Field Guide to Aurora Kinase Inhibitors” (Frontiers in Oncology, 2015)
